Experimental data as given in ChEMBL document CHEMBL3526141, “Characterization of human liver enzymes involved in the biotransformation of boceprevir, a hepatitis C virus protease inhibitor” (Drug Metab Dispos, 2011).

Legend:
[1] = test system: Liver microsome; assay: Drug metabolism in human liver microsomes treated with 5 uM [14C]boceprevir assessed as compound formation by LC-MS/FSA method relative to total [14C]boceprevir; format: ADME
[2] = test system: Liver microsome; assay: Drug metabolism in human liver microsomes treated with 20 uM [14C]boceprevir assessed as compound formation by LC-MS/FSA method relative to total [14C]boceprevir; format: ADME
[3] = biological target: T1, Cytochrome P450 4F3 (Homo sapiens, UniProt Q08477); assay: Drug metabolism assessed as human CYP4F3A-mediated compound formation from 5 uM [14C]boceprevir after 120 mins by LC-MS/FSA method relative to total [14C]boceprevir; format: ADME; details: recombinant enzyme, 2 h
T1 sequence (Q08477 whole entry): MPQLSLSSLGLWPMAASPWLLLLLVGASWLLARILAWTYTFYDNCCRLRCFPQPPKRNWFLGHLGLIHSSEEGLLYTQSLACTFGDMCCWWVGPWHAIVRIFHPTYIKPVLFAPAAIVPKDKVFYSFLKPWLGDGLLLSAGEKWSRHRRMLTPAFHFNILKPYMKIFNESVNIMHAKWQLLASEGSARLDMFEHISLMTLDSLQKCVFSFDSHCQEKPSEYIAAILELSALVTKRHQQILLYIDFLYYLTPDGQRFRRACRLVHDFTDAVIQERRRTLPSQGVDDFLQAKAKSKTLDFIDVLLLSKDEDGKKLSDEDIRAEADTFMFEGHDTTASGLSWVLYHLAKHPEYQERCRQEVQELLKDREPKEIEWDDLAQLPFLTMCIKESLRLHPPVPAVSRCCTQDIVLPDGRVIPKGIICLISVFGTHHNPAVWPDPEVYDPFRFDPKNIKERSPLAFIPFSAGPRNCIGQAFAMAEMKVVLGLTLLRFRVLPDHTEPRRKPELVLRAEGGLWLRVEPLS

[4] = Retention time of the compound by LC-MS/MS method; format: physicochemical
[5] = biological target: Cytochrome P450 3A5 (Homo sapiens, UniProt P20815); assay: Drug metabolism assessed as human CYP3A5-mediated compound formation from 5 uM [14C]boceprevir after 120 mins by LC-MS/FSA method relative to total [14C]boceprevir; format: ADME; details: recombinant enzyme, 2 h
Sequence of Cytochrome P450 3A5 (P20815 whole entry): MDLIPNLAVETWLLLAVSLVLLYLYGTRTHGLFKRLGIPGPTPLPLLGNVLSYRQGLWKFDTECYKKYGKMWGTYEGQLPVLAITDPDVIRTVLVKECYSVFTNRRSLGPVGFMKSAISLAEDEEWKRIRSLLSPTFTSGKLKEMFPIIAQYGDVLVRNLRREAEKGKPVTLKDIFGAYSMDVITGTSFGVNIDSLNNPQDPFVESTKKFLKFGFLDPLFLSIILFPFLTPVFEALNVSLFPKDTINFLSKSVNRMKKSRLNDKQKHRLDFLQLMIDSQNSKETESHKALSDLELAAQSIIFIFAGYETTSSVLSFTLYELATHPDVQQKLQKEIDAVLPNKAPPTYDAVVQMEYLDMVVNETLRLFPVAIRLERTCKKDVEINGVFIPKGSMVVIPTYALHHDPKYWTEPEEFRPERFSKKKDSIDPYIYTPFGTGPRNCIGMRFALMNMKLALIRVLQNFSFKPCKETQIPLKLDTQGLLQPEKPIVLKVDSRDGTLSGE

[6] = test system: Liver cytosol; assay: Drug metabolism in human liver cytosol at 20 uM assessed as (1R,2S,5S)-N-((2R,3R)-4-amino-1-cyclobutyl-3-hydroxy-4-oxobutan-2-yl)-3-((S)-2-(3-tert-butylureido)-3,3-dimethylbutanoyl)-6,6-dimethyl-3-azabicyclo[3.1.0]hexane-2-carboxamide formation at 20 uM after 60 mins in presence of AKR inhibitor ibuprofen by LC-MS/MS/FSA method; format: ADME; details: 1 h
[7] = test system: Liver cytosol; assay: Drug metabolism in human liver cytosol treated with 20 uM assessed as compound formation in presence of NADPH generating system by LC-MS/MS/FSA method; format: ADME
[8] = test system: Liver cytosol; assay: Drug metabolism in human liver cytosol treated with 20 uM [14C]boceprevir assessed as quercetin-mediated inhibition of metabolite formation by LC-MS/MS/FSA method; format: ADME, tissue-based
[9] = test system: Liver cytosol; assay: Drug metabolism in human liver cytosol at 20 uM assessed as (1R,2S,5S)-N-((2S,3R)-4-amino-1-cyclobutyl-3-hydroxy-4-oxobutan-2-yl)-3-((S)-2-(3-tert-butylureido)-3,3-dimethylbutanoyl)-6,6-dimethyl-3-azabicyclo[3.1.0]hexane-2-carboxamide formation at 20 uM after 60 mins in presence of pre-incubation with ritonavir by LC-MS/MS/FSA method; format: ADME; details: 1 h
[10] = test system: Liver cytosol; assay: (§1) Drug metabolism in human liver cytosol at 20 uM assessed as (1R,2S,5S)-N-((2S,3R)-4-amino-1-cyclobutyl-3-hydroxy-4-oxobutan-2-yl)-3-((S)-2-(3-tert-butylureido)-3,3-dimethylbutanoyl)-6,6-dimethyl-3-azabicyclo[3.1.0]hexane-2-carboxamide formation at 20 uM after 60 mins in presence of AKR inhibitor ibuprofen by LC-MS/MS/FSA method; format: ADME; details: 1 h
[11] = biological target: T2, Aldo-keto reductase family 1 member C3 (Homo sapiens, UniProt P42330); assay: (§2) Activity of human recombinant AKR1C3 expressed in HEK293 cells assessed as (1R,2S,5S)-N-((2S,3R)-4-amino-1-cyclobutyl-3-hydroxy-4-oxobutan-2-yl)-3-((S)-2-(3-tert-butylureido)-3,3-dimethylbutanoyl)-6,6-dimethyl-3-azabicyclo[3.1.0]hexane-2-carboxamide formation after 120 mins in presence of NADPH by LC-MS/MS/FSA method; format: ADME, cell-based; details: hek293, 2 h
T2 sequence (P42330 whole entry): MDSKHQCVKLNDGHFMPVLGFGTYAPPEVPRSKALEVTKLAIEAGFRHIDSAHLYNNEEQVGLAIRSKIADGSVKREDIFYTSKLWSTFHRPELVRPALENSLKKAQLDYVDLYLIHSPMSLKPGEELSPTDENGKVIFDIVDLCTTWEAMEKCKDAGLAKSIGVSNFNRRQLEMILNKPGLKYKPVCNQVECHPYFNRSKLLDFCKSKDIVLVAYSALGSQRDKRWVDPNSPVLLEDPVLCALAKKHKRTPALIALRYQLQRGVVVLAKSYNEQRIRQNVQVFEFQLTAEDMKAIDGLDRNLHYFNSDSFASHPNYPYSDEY

[12] = test system: Liver cytosol; assay: Drug metabolism in human liver cytosol at 20 uM assessed as (1R,2S,5S)-N-((2S,3R)-4-amino-1-cyclobutyl-3-hydroxy-4-oxobutan-2-yl)-3-((S)-2-(3-tert-butylureido)-3,3-dimethylbutanoyl)-6,6-dimethyl-3-azabicyclo[3.1.0]hexane-2-carboxamide formation in presence of allopurinol by LC-MS/MS/FSA method; format: ADME
[13] = test system: Liver cytosol; assay: as §1, with “diflunisal” for “ibuprofen”; format: ADME; details: 1 h
[14] = biological target: T2, Aldo-keto reductase family 1 member C3; assay: as §2, with “formation per mg protein” for “formation”; format: ADME, cell-based; details: hek293, 2 h
[15] = Drug excretion in human urine; format: ADME; set-up: dosed compound name [14C]boceprevir
[16] = biological target: T3, Aldo-keto reductase family 1 member C2 (Homo sapiens, UniProt P52895); assay: Activity of human recombinant AKR1C2 expressed in HEK293 cells assessed as (1R,2S,5S)-N-((2R,3R)-4-amino-1-cyclobutyl-3-hydroxy-4-oxobutan-2-yl)-3-((S)-2-(3-tert-butylureido)-3,3-dimethylbutanoyl)-6,6-dimethyl-3-azabicyclo[3.1.0]hexane-2-carboxamide formation at 20 uM after 120 mins in presence of NADPH by LC-MS/MS/FSA method; format: ADME, cell-based; details: hek293, 2 h
T3 sequence (P52895 whole entry): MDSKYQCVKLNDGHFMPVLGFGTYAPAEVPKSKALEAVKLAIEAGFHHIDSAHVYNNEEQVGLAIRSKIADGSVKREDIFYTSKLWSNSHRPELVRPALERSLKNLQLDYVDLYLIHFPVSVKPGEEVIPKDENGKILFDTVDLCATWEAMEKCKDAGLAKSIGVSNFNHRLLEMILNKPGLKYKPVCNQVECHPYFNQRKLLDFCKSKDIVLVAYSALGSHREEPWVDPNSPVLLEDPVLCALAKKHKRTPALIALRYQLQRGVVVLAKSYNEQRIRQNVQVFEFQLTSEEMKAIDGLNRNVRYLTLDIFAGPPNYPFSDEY

[17] = Drug excretion in human feces; format: ADME; set-up: dosed compound name [14C]-SCH 534128
[18] = test system: Liver cytosol; assay: Drug metabolism in human liver cytosol at 20 uM assessed as (1R,2S,5S)-N-((2S,3R)-4-amino-1-cyclobutyl-3-hydroxy-4-oxobutan-2-yl)-3-((S)-2-(3-tert-butylureido)-3,3-dimethylbutanoyl)-6,6-dimethyl-3-azabicyclo[3.1.0]hexane-2-carboxamide formation in presence of flufenamic acid by LC-MS/MS/FSA method; format: ADME
[19] = Drug metabolism in human liver S9 fraction at 20 uM assessed as (1R,2S,5S)-N-((2S,3R)-4-amino-1-cyclobutyl-3-hydroxy-4-oxobutan-2-yl)-3-((S)-2-(3-tert-butylureido)-3,3-dimethylbutanoyl)-6,6-dimethyl-3-azabicyclo[3.1.0]hexane-2-carboxamide formation in presence of allopurinol by LC-MS/MS/FSA method; format: ADME, subcellular; details: s9, 20 µM

| SMILES | Compound recovery [1] | Compound recovery [2] | Compound recovery [3] | Retention_time [4] | Compound recovery [5] | Compound recovery [6] | Compound recovery [7] | inhibition (INH) [8] | Compound recovery [9] | Compound recovery [10] | Km [11] | Compound recovery [12] | Compound recovery [13] | Vmax [14] | Radiolabel recovery [15] | Compound recovery [16] | Radiolabel recovery [17] | Compound recovery [18] | Compound recovery [19] |
| --- | --- | --- | --- | --- | --- | --- | --- | --- | --- | --- | --- | --- | --- | --- | --- | --- | --- | --- | --- |
| CC(C)(C)NC(=O)N[C@H](C(=O)N1C[C@H]2[C@@H]([C@H]1C(=O)N[C@H](CC1CCC1)C(=O)C(N)=O)C2(C)C)C(C)(C)C | 0.31% | 17.42% | 34.35% | 44.6 min | 2.19% | metabolite_not_detected | – | – | – | – | – | – | – | – | – | – | – | – | – |
| CC(C)(C)NC(=O)N[C@H](C(=O)N1C[C@H]2[C@@H]([C@H]1C(=O)N[C@@H](CC1CCC1)[C@@H](O)C(N)=O)C2(C)C)C(C)(C)C | – | 0.6% | 1.78% | 40.1 min | – | – | 68% | < 30% | – | – | – | – | – | – | – | – | – | – | – |
| CC(C)(C)NC(=O)N[C@H](C(=O)N1C[C@H]2[C@@H]([C@H]1C(=O)NC(CC1CCC1)C(=O)C(N)=O)C2(C)C)C(C)(C)C (some centres not stated) [BOCEPREVIR] | – | – | – | – | – | – | – | – | metabolite_detected | metabolite_not_detected | 43.5 µM | metabolite_detected | metabolite_not_detected | 639 pmol/min | 9.3% | metabolite_detected | metabolite_not_detected | metabolite_not_detected | metabolite_detected |
